Data taken from patent US10660967B2, “Curcumin conjugates and methods of use thereof” (priority 2016, dated 2020).
Where two headings read alike, the source gives them in different places.

What was measured:
[1] = tested on: Candida albicans (local isolate); test: Antimicrobial MIC, agar dilution; conditions: Candida albicans, read-out: Minimum inhibitory concentration (MIC)
[2] = tested on: carrageenan induced paw edema; test: Anti-inflammatory activity: acute carrageenan induced paw edema in rats; format: in vivo, Wister rats; conditions: at 4 h effect; 10 mg kg^−1 indomethacin mol equivalent
Outline: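 Wistar rats (120–150 g, n=6/group) received subplantar 1% carrageenan in the right hind paw, and DMSO-vehicle animals served as controls. Results are given as % inhibition of edema thickness versus control.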

[3] = tested on: MCF7 (breast) carcinoma cell line; test: Anti-tumor properties, MTT; format: cell-based; conditions: Homo sapiens
Outline: (§1)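 Cells seeded at 10×10^3 per well for 24 h, then exposed to compound in serum-free medium (final up to 100 μM, 0.5% DMSO vehicle) for 72 h in triplicate. Viability by MTT reduction (4 h, SDS solubilised), absorbance 595 nm/ref 620 nm; IC50 from survival curves.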

[4] = tested on: HepG2 (hepatocellular) carcinoma cell line; test: Anti-tumor properties, MTT; format: cell-based; conditions: Homo sapiens
Outline: as §1

[5] = tested on: HCT116 (colon) carcinoma cell line; test: Anti-tumor properties, MTT; format: cell-based; conditions: Homo sapiens, HCT-116
Outline: as §1

[6] = tested on: lipopolysaccharide-stimulated peritoneal macrophages; test: Production of nitric oxide by lipopolysaccharide-stimulated peritoneal macrophages (Greiss reagent); format: cell-based; set-up: Potency (%): % inhibition of nitric oxide production relative to lipopolysaccharide-stimulated macrophages: concentration or dose not given beside the values; conditions: LPS-stimulated peritoneal macrophages; for Nitric oxide (nitrite) concentration, μM (average ± SD): 24 h, nitrite by Greiss reagent
Outline: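 NO output was quantified as accumulated nitrite, reacting supernatant with Greiss reagent (sulfanilamide/α-naphthylamine) and reading at 532 nm. Beforehand, cells had been incubated 24 h at 37° C. in nitrite-free, 0.1% BSA medium with 0.5–10 ng/ml LPS, with or without catecholamines at […].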

Structure (SMILES)	MIC ([1]; 18 h) [µg/mL]	MIC [1] [µM]	Potency (% inhibition of edema relative to that of indomethacin reference standard) [2]	activity at 100 µM ([3]; MCF7, 100 μM, 72 h, read-out: Percentage growth of tumor cell lines treated with the tested compounds (±SD)) [%]	activity at 100 µM ([4]; HepG2, 100 μM, 72 h, read-out: Percentage growth of tumor cell lines treated with the tested compounds (±SD)) [%]	activity at 100 µM ([5]; HCT116, 100 μM, 72 h, read-out: Percentage growth of tumor cell lines treated with the tested compounds (±SD)) [%]	Potency (%): % inhibition of nitric oxide production relative to lipopolysaccharide-stimulated macrophages [6] [%]	Nitric oxide (nitrite) concentration, μM (average ± SD) [6] [µM]	IC50 ([3]; MCF7, read-out: IC50 (μM) MCF7 (breast)) [µM]	IC50 ([4]; HepG2, read-out: IC50 (μM) HepG2 (liver)) [µM]	IC50 ([5]; read-out: IC50 (μM) HCT116 (colon)) [µM]
COc1cc(/C=C/C(=O)CC(=O)/C=C/c2ccc(OC(=O)C(C)NC(=O)OCc3ccccc3)c(OC)c2)ccc1OC(=O)C(C)NC(=O)OCc1ccccc1 (racemic) [Cbz-DL-Ala-Cur, ((1E,6E)-3,5-dioxohepta-1,6-diene-1,7-diyl)bis(2-methoxy-4,1-phenylene) bis(2-(((benzyloxy)carbonyl)amino)propanoate)]	0.5	0.642	115	62.7 ± 4.7	82.9 ± 4.1	92 ± 2.1	45.41	14.91 ± 0.62	–	–	–
COc1cc(/C=C/C(=O)CC(=O)/C=C/c2ccc(OC(=O)[C@H](N)CCSC)c(OC)c2)ccc1OC(=O)[C@H](N)CCSC.Cl.Cl [HCl-D-Met-Cur, (2R,2′R)-1,1′-((((1E,6E)-3,5-dioxohepta-1,6-diene-1,7-diyl)bis(2-methoxy-4,1-phenylene))bis(oxy))bis(4-(methylthio)-1-oxobutan-2-aminium) chloride]	1	1.42	113	–	–	–	49.57	13.77 ± 0.96	10.2	43.6	46.7
